Measured values reported in patent US12649751B2 (Arcus Biosciences, Inc., priority 2022, dated 2026).

These molecules were tested against HPK1 (Homo sapiens, UniProt Q92918) (assay: HPK1 Biochemical Assay (ADP-Glo luminescence; low ATP 10 μM or high ATP 200 μM)). Details: 2 nM HPK1, 10 μM ATP; read-out: Biochemical Potency (low ATP).
Method: Dose-response assays were performed in Corning® Low Volume 384-well assay plates containing 100 nL of 22 serial 2-fold compound dilutions. Wells containing DMSO alone were used as negative control. A kinase mixture (5 μL) containing 2 nM HPK1 (or 5 nM for high ATP assay) in assay buffer (50 mM Hepes pH 7.4, 10 mM MgCl2, 0.01% Brij-15, 0.01% bovine serum albumin, and 1 mM dithiothreitol) was added to the assay plates and incubated at 25° C. for 1 hour. Wells without HPK1 were used as positive control. A […] of 10 μM ATP (or 200 μM for high ATP) and 0.2 μg/μL […] was then added to the wells, resulting in a 10 μL total reaction volume. Following incubation of the assay plates at 25° C. for 1 hour, 10 μL of ADP-Glo reagent was added to the wells and the plates were incubated at 25° C. for a further 40 minutes (or 1 hour for high ATP assay). Finally, 20 μL of Kinase Detection Reagent was added, and the plates were incubated for another 30 minutes at 25° C. An Envision plate reader was then used to detect the luminescence signals. IC50 values were determined by fitting the data to a standard 4-parameter logistic equation. The results are summarized in the Biochemical Potency columns of Tables 4 and 5 below (Biochemical Potency (high ATP); Biochemical Potency (low ATP)).

HPK1, sequence (Q92918 whole entry, species assumed): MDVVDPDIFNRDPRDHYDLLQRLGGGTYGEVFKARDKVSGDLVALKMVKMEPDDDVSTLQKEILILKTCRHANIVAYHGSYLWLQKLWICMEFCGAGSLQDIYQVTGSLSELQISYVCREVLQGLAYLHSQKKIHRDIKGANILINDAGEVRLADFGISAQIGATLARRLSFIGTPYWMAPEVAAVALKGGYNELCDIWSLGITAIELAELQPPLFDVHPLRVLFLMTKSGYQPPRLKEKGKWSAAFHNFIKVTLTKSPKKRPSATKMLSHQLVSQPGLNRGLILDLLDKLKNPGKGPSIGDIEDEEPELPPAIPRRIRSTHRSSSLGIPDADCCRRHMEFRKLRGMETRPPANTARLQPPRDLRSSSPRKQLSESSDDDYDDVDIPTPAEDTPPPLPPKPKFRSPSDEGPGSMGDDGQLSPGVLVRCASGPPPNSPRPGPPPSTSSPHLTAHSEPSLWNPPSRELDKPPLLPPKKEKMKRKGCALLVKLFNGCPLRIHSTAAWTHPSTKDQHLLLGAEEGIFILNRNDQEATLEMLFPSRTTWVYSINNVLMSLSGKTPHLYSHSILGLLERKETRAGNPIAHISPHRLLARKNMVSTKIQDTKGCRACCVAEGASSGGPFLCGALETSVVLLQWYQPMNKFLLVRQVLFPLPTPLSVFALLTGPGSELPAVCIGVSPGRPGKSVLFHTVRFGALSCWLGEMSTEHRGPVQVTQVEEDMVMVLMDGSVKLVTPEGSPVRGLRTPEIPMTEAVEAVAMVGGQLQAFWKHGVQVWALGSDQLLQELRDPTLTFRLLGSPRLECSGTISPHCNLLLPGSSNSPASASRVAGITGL

Structure (SMILES)	IC50 [nM]
Cc1cccnc1-c1nc2cc(Nc3cccc(N4C[C@@H]5CCN(C)[C@@H]5C4)n3)ncc2s1 [Example 111, 6-[(3aS,6aS)-1-Methyl-octahydropyrrolo[3,4-b]pyrrol-5-yl]-N-[2-(3-methylpyridin-2-yl)-[1,3]thiazolo[5,4-c]pyridin-6-yl]pyridin-2-amine]	< 100
Fc1cccc(F)c1-c1nc2cc(Nc3ccc(N4CCC(F)(F)C4)c(CN4CCCC4)n3)ncc2s1 [Example 11, N-[2-(2,6-Difluorophenyl)-[1,3]thiazolo[5,4-c]pyridin-6-yl]-5-(3,3-difluoropyrrolidin-1-yl)-6-[(pyrrolidin-1-yl)methyl]pyridin-2-amine]	100 to 1000
Cc1cc(Nc2cc3nc(-c4ccnc(N)c4)sc3cn2)nc(O[C@H]2CCNC2)c1 [Example 170, N-[2-(2-Aminopyridin-4-yl)-[1,3]thiazolo[5,4-c]pyridin-6-yl]-4-methyl-6-[(3S)-pyrrolidin-3-yloxy]pyridin-2-amine]	< 100
C[C@H]1CCCN1c1nc2cc(Nc3ccc(C4CCOCC4)c(CN4CCCC4)n3)ncc2s1 [Example 230, N-{2-[(2S)-2-Methylpyrrolidin-1-yl]-[1,3]thiazolo[5,4-c]pyridin-6-yl}-5-(oxan-4-yl)-6-[(pyrrolidin-1-yl)methyl]pyridin-2-amine]	< 100
Cc1cccc(C)c1-c1nc2cc(Nc3ccc(N4CCC(F)(F)C4)c(CN4CCCC4)n3)ncc2s1 [Example 10, 5-(3,3-Difluoropyrrolidin-1-yl)-N-[2-(2,6-dimethylphenyl)-[1,3]thiazolo[5,4-c]pyridin-6-yl]-6-[(pyrrolidin-1-yl)methyl]pyridin-2-amine]	< 100
Cc1ccc(Nc2cc3nc(-n4nccc4C)sc3cn2)nc1N1CC[C@H](O)C1 [Example 202, (3S)-1-(3-Methyl-6-{[2-(5-methyl-1H-pyrazol-1-yl)-[1,3]thiazolo[5,4-c]pyridin-6-yl]amino}pyridin-2-yl)pyrrolidin-3-ol]	100 to 1000
Cc1ncccc1-c1nc2cc(Nc3cccc(N4C[C@@H]5C[C@H]4CN5C)n3)ncc2s1 [Example 138, 6-[(1S,4S)-5-Methyl-2,5-diazabicyclo[2.2.1]heptan-2-yl]-N-[2-(2-methylpyridin-3-yl)-[1,3]thiazolo[5,4-c]pyridin-6-yl]pyridin-2-amine]	< 100
Cc1cc(Nc2cc3nc(N4CCC[C@@H](O)C4)sc3cn2)nc(O[C@H]2CCNC2)c1 [Example 193, (3R)-1-(6-{[4-Methyl-6-((3S)-pyrrolidin-3-yloxy)pyridin-2-yl]amino}-[1,3]thiazolo[5,4-c]pyridin-2-yl)piperidin-3-ol]	< 100
CN1C[C@@H]2C[C@H]1CN2c1nccc(Nc2cc3nc(-c4ccnc(N5CC[C@@H](F)C5)c4)sc3cn2)n1 [Example 267, N-(2-{2-[(3R)-3-Fluoropyrrolidin-1-yl]pyridin-4-yl}-[1,3]thiazolo[5,4-c]pyridin-6-yl)-2-[(1S,4S)-5-methyl-2,5-diazabicyclo[2.2.1]heptan-2-yl]pyrimidin-4-amine]	< 100
Cc1cc(Nc2cc3nc(N4CCC(O)CC4)sc3cn2)nc(O[C@H]2CCNC2)c1 [Example 189, 1-(6-{[4-Methyl-6-((3S)-pyrrolidin-3-yloxy)pyridin-2-yl]amino}-[1,3]thiazolo[5,4-c]pyridin-2-yl)piperidin-4-ol]	< 100
Cc1cccnc1-c1nc2cc(Nc3ccnc(N4C[C@@H]5C[C@H]4CN5)n3)ncc2s1 [Example 149, 2-[(1S,4S)-2,5-Diazabicyclo[2.2.1]heptan-2-yl]-N-[2-(3-methylpyridin-2-yl)-[1,3]thiazolo[5,4-c]pyridin-6-yl]pyrimidin-4-amine]	< 100
c1cc(C2CCOCC2)c(CN2CCCC2)nc1Nc1cc2nc(N3CCCC3)sc2cn1 [Example 231, 5-(Oxan-4-yl)-N-[2-(pyrrolidin-1-yl)-[1,3]thiazolo[5,4-c]pyridin-6-yl]-6-[(pyrrolidin-1-yl)methyl]pyridin-2-amine]	100 to 1000
CN1C[C@@H]2C[C@H]1CN2c1cncc(Nc2cc3nc(-c4cc(N5CC[C@H](F)C5)ccn4)sc3cn2)n1 [Example 124, N-(2-{4-[(3S)-3-Fluoropyrrolidin-1-yl]pyridin-2-yl}-[1,3]thiazolo[5,4-c]pyridin-6-yl)-6-[(1S,4S)-5-methyl-2,5-diazabicyclo[2.2.1]heptan-2-yl]pyrazin-2-amine]	< 100
Cc1ccc(Nc2cc3nc(-c4cccc(F)c4)sc3cn2)nc1CN1CCCC1 [Example 34]	< 100
Cc1ccc(Nc2cc3nc(-n4nccc4C)sc3cn2)nc1N1CCN(CCO)CC1 [Example 203, 2-[4-(3-Methyl-6-{[2-(5-methyl-1H-pyrazol-1-yl)-[1,3]thiazolo[5,4-c]pyridin-6-yl]amino}pyridin-2-yl)piperazin-1-yl]ethan-1-ol]	100 to 1000
Cc1cc(Nc2cc3nc(-c4ccc(F)cc4)sc3cn2)nc(O[C@H]2CCNC2)c1 [Example 188, N-[2-(4-Fluorophenyl)-[1,3]thiazolo[5,4-c]pyridin-6-yl]-4-methyl-6-[(3S)-pyrrolidin-3-yloxy]pyridin-2-amine]	< 100
Cc1cc(Nc2cc3nc(-c4ccnn4C)sc3cn2)nc(O[C@H]2CCNC2)c1 [Example 181, 4-Methyl-N-[2-(1-methyl-1H-pyrazol-5-yl)-[1,3]thiazolo[5,4-c]pyridin-6-yl]-6-[(3S)-pyrrolidin-3-yloxy]pyridin-2-amine]	< 100
Cc1ccc(Nc2cc3nc(-c4ncccc4C)sc3cn2)nc1CN1CCCC1(C)C [Example 47, 6-[(2,2-Dimethylpyrrolidin-1-yl)methyl]-5-methyl-N-[2-(3-methylpyridin-2-yl)-[1,3]thiazolo[5,4-c]pyridin-6-yl]pyridin-2-amine]	< 100
N#Cc1ccc(-c2nc3cc(Nc4ccc(N5CCOCC5)c(CN5CCCC5)n4)ncc3s2)cc1 [Example 21, 4-(6-{[5-(Morpholin-4-yl)-6-[(pyrrolidin-1-yl)methyl]pyridin-2-yl]amino}-[1,3]thiazolo[5,4-c]pyridin-2-yl)benzonitrile]	< 100

Results, then the molecule that gave them:

IC50 [nM]	Structure (SMILES)
< 100	Cc1cccnc1-c1nc2cc(Nc3ccc(C)c(N4CC[C@H](N)C4)n3)ncc2s1 [Example 75, 6-[(3S)-3-Aminopyrrolidin-1-yl]-5-methyl-N-[2-(3-methylpyridin-2-yl)-[1,3]thiazolo[5,4-c]pyridin-6-yl]pyridin-2-amine]
< 100	Cc1cc(Nc2cc3nc(-c4ccnc(C)c4)sc3cn2)nc(OC2CNCC2(F)F)c1 (stereo not drawn) [Example 171, 6-[(4,4-Difluoropyrrolidin-3-yl)oxy]-4-methyl-N-[2-(2-methylpyridin-4-yl)-[1,3]thiazolo[5,4-c]pyridin-6-yl]pyridin-2-amine]
< 100	CC(C)c1ccc(Nc2cc3nc(-n4cccn4)sc3cn2)nc1CN1CCCC1 [Example 228, 5-(Propan-2-yl)-N-[2-(1H-pyrazol-1-yl)-[1,3]thiazolo[5,4-c]pyridin-6-yl]-6-[(pyrrolidin-1-yl)methyl]pyridin-2-amine]
< 100	Cc1ccc(Nc2cc3nc(-c4ncccc4C)sc3cn2)nc1CN1CCC[C@@H]1C [Example 45, 5-Methyl-N-[2-(3-methylpyridin-2-yl)-[1,3]thiazolo[5,4-c]pyridin-6-yl]-6-{[(2S)-2-methylpyrrolidin-1-yl]methyl}pyridin-2-amine]
100 to 1000	Cc1ccc(Nc2cc3nc(-c4cncnc4)sc3cn2)nc1CN1CCCC1 [Example 58, 5-Methyl-N-[2-(pyrimidin-5-yl)-[1,3]thiazolo[5,4-c]pyridin-6-yl]-6-[(pyrrolidin-1-yl)methyl]pyridin-2-amine]

Same assay, conditions: HPK1 ADP-Glo assay, high ATP (200 μM ATP, 5 nM HPK1); read-out: Biochemical Potency (high ATP)

IC50 [nM]	Structure (SMILES)
< 100	Cc1cc(Nc2cc3nc(-c4cccc(C(=O)N(C)[C@@H]5CCCOC5)c4)sc3cn2)nc(N2C[C@@H]3C[C@H]2CN3CCO)n1 [Example 542]

Same assay, conditions: HPK1 ADP-Glo assay, low ATP (10 μM ATP, 2 nM HPK1); read-out: Biochemical Potency (low ATP)

IC50 [nM]	Structure (SMILES)
100 to 1000	CN1C[C@@H]2C[C@H]1CN2c1nccc(Nc2cc3nc(N4CCc5cnccc5C4)sc3cn2)n1 [Example 426]
100 to 1000	Cc1cccnc1-c1nc2cc(Nc3cc(C4CCNC4)nc(N4CCC(F)(F)C4)n3)ncc2s1 (stereo not drawn) [Example 319, [2-(3,3-difluoro-1-pyrrolidinyl)-6-(3-pyrrolidinyl)-4-pyrimidinyl][2-(3-methyl-2-pyridyl)-3-thia-1,5-diaza-6-indenyl]amine]
< 100	CC(C)(O)c1cc(-c2nc3cc(Nc4cnc(C5CCOCC5)c(N5C[C@@H]6C[C@H]5CN6)n4)ncc3s2)ccn1 [Example 303, 2-{4-[6-({6-[(1S,4S)-2,5-diazabicyclo[2.2.1]heptan-2-yl]-5-(oxan-4-yl)pyrazin-2-yl}amino)-[1,3]thiazolo[5,4-c]pyridin-2-yl]pyridin-2-yl}propan-2-ol]
< 100	Cc1cccnc1-c1nc2cc(Nc3ccc4cccc(C(C)(C)N)c4n3)ncc2s1 [Example 306, 6-[8-(1-amino-1-methylethyl)-2-quinolylamino]-2-(3-methyl-2-pyridyl)-3-thia-1,5-diazaindene]
< 100	CN1C[C@@H]2C[C@H]1CN2c1nc(Nc2cc3nc(-c4ccnc(C(C)(C)O)c4)sc3cn2)cc(C2CCOCC2)n1 [Example 439]
